Converted amounts (≈) assume the structure as drawn. Each block holds one compound with its values, some of them ahead of it.
Tests used:
Assay in all cases: ≥ marks a high value that may be exact or a test limit, other limits are often not marked, values filed in µg/mL are converted to µM
[1] = test system: Staphylococcus haemolyticus MTCC 3383
[2] = test system: Salmonella enterica MTCC 9844
[3] = test system: Alcaligenes faecalis MTCC 1937
[4] = test system: Shigella boydii MTCC 11947
[5] = test system: Vibrio cholerae MTCC 3904
[6] = test system: Staphylococcus aureus MTCC 3160
[7] = test system: Klebsiella pneumoniae MTCC 7407
[8] = test system: Salmonella enterica subsp. enterica serovar Typhimurium ATCC 14028
[9] = test system: Proteus mirabilis MTCC 3158
[10] = test system: Acinetobacter baumannii MTCC 9829
[11] = test system: Alkalihalobacillus alcalophilus MTCC 860
[12] = test system: Klebsiella aerogenes MTCC 111
[13] = test system: Escherichia coli K12 MG1655
[14] = test system: Pluralibacter gergoviae MTCC 3826
[15] = test system: Bordetella bronchiseptica MTCC 6837
[16] = test system: Proteus vulgaris MTCC 1771
[17] = test system: Pseudomonas aeruginosa MTCC 3542
[18] = test system: Shigella flexneri MTCC 1457
[19] = test system: Stenotrophomonas maltophilia MTCC 1890
[20] = test system: Citrobacter koseri MTCC 1657
[21] = test system: Corynebacterium glutamicum MTCC 2679
[22] = test system: Enterococcus faecalis MTCC 439
[23] = test system: Klebsiella oxytoca MTCC 2275
[24] = test system: Haemophilus influenzae MTCC 621
[25] = test system: Citrobacter freundii MTCC 1658
[26] = test system: Staphylococcus aureus USA 300
[27] = test system: Pseudomonas aeruginosa ATCC 27853
[28] = test system: Acinetobacter baumannii 4-MRGN
[29] = test system: Enterococcus faecium
[30] = test system: Salmonella enterica subsp. enterica serovar Enteritidis BNCC 103134
[31] = test system: Escherichia coli ATCC 25922
[32] = test system: Staphylococcus aureus ATCC 25923
[33] = test system: Bacillus subtilis ATCC 6633
[34] = test system: Escherichia coli 0164 EIEC6
[35] = test system: Candida albicans ATCC 90028
[36] = test system: Escherichia coli O157:H7 734/94
[37] = test system: Staphylococcus aureus
[38] = test system: Escherichia coli 0112 EIEC26
[39] = test system: Candida albicans
[40] = test system: Escherichia coli
[41] = test system: Escherichia coli AX-100-3-1
[42] = test system: Escherichia coli O157:H7 CB6392
[43] = test system: Escherichia coli 0143 EIEC7
[44] = test system: Enterococcus faecalis ATCC 29212
[45] = test system: Staphylococcus epidermidis RP62A
[46] = test system: Escherichia coli U7794
[47] = test system: Klebsiella pneumoniae KK3 9904
[48] = test system: Escherichia coli O6:K15:H31 536
[49] = test system: Enterobacter cloacae NHTCC 53001
[50] = test system: Escherichia coli U7103
[51] = test system: Escherichia coli ATCC 35218
[52] = test system: Escherichia coli 0112 EIEC27
[53] = test system: Proteus mirabilis ATCC 25933
[54] = test system: Escherichia coli O26:H11 3
[55] = test system: Escherichia coli O157:H7 30328
[56] = test system: Escherichia coli AX-109-2-3
[57] = test system: Staphylococcus aureus NCTC 8325
[58] = test system: Escherichia coli AX-128-3-3
[59] = test system: Escherichia coli 0152 EIEC1
[60] = test system: Escherichia coli O26:H- CB6418
[61] = test system: Escherichia coli AX-054-1-3
[62] = test system: Escherichia coli O157:H7 282

SMILES: CC[C@H](C)[C@H](NC(=O)[C@H](C)NC(=O)[C@H](CCCN=C(N)N)NC(=O)[C@H](C)NC(=O)[C@H](CC(C)C)NC(=O)[C@@H](N)Cc1ccc(O)cc1)C(=O)N[C@@H](CCCN=C(N)N)C(=O)N[C@@H](CCCN=C(N)N)C(=O)N[C@H](C(=O)N[C@@H](CC(C)C)C(=O)N[C@@H](C)C(=O)N[C@@H](CCCN=C(N)N)C(=O)N[C@@H](CC(C)C)C(=O)N[C@@H](CC(C)C)C(=O)N[C@@H](CC(C)C)C(=O)O)[C@@H](C)O [YLARAIRRTLARLLL]
- MIC [1]: 8.89 µM (≈ 16 µg/mL)
- MIC [2]: 8.89 µM (≈ 16 µg/mL)
- MIC [3]: 17.8 µM (≈ 32 µg/mL)
- MIC [4]: 17.8 µM (≈ 32 µg/mL)
- MIC [5]: ≥ 35.6 µM
- MIC [6]: 8.89 µM (≈ 16 µg/mL)
- MIC [7]: 17.8 µM (≈ 32 µg/mL)
- MIC [8]: 17.8 µM (≈ 32 µg/mL)
- MIC [9]: ≥ 71.1 µM
- MIC [10]: 8.89 µM (≈ 16 µg/mL)
- MIC [11]: 8.89 µM (≈ 16 µg/mL)
- MIC [12]: 17.8 µM (≈ 32 µg/mL)
- MIC [13]: 17.8 µM (≈ 32 µg/mL)
- MIC [14]: ≥ 71.1 µM
- MIC [15]: 2.22 µM (≈ 4 µg/mL)
- MIC [16]: ≥ 71.1 µM
- MIC [17]: ≥ 71.1 µM
- MIC [18]: 4.45 µM (≈ 8 µg/mL)
- MIC [19]: 8.89 µM (≈ 16 µg/mL)
- MIC [20]: 8.89 µM (≈ 16 µg/mL)
- MIC [21]: 2.22 µM (≈ 4 µg/mL)
- MIC [22]: ≥ 35.6 µM
- MIC [23]: 8.89 µM (≈ 16 µg/mL)
- MIC [24]: 4.45 µM (≈ 8 µg/mL)
- MIC [25]: 8.89 µM (≈ 16 µg/mL)

- MIC [26]: ≥ 50 µM
- MIC [27]: 50 µM (≈ 51.4 µg/mL)
- MIC [28]: 25 µM (≈ 25.7 µg/mL)
- MIC [29]: 25 µM (≈ 25.7 µg/mL)
SMILES: C[C@H](N)C(=O)N[C@H](C(=O)N[C@H]1CSSC[C@@H](C(=O)N[C@@H](CCCN=C(N)N)C(=O)N[C@H](C(=O)NCC(=O)N[C@@H](CCCN=C(N)N)C(=O)O)[C@@H](C)O)NC(=O)[C@H](Cc2ccc(O)cc2)NC1=O)[C@@H](C)O [ATCYCRTGR]

- MIC [30]: ≥ 150 µM
- MIC [31]: 100 µM (≈ 63 µg/mL)
- MIC [32]: 100 µM (≈ 63 µg/mL)
- MIC [33]: ≥ 150 µM
SMILES: CC(C)[C@H](NC(=O)[C@H](C)NC(=O)[C@H](CCCN=C(N)N)NC(=O)[C@H](CC(=O)O)NC(=O)[C@@H](NC(=O)[C@H](C)N)C(C)C)C(=O)O [AVDRAV]

- MIC [34]: 20 µM (≈ 53 µg/mL)
- MIC [35]: ≥ 40 µM
- MIC [36]: 10 µM (≈ 26.5 µg/mL)
- MIC [37]: 50 µM (≈ 133 µg/mL)
- MIC [38]: ≥ 40 µM
- MIC [39]: 70 µM (≈ 186 µg/mL)
- MIC [40]: 2 µM (≈ 5.3 µg/mL)
- MIC [41]: 20 µM (≈ 53 µg/mL)
- MIC [42]: 10 µM (≈ 26.5 µg/mL)
- MIC [43]: 20 µM (≈ 53 µg/mL)
- MIC [31]: 20 µM (≈ 53 µg/mL)
- MIC [44]: 20 µM (≈ 53 µg/mL)
- MIC [27]: 20 µM (≈ 53 µg/mL)
- MIC [45]: 20 µM (≈ 53 µg/mL)
- MIC [46]: 10 µM (≈ 26.5 µg/mL)
- MIC [47]: ≥ 40 µM
- MIC [48]: 5 µM (≈ 13.3 µg/mL)
- MIC [49]: 20 µM (≈ 53 µg/mL)
- MIC [50]: 5 µM (≈ 13.3 µg/mL)
- MIC [51]: 20 µM (≈ 53 µg/mL)
- MIC [52]: 20 µM (≈ 53 µg/mL)
- MIC [53]: ≥ 100 µM
- MIC [54]: 5 µM (≈ 13.3 µg/mL)
- MIC [55]: 10 µM (≈ 26.5 µg/mL)
- MIC [56]: 10 µM (≈ 26.5 µg/mL)
- MIC [57]: 20 µM (≈ 53 µg/mL)
- MIC [58]: 10 µM (≈ 26.5 µg/mL)
- MIC [59]: 20 µM (≈ 53 µg/mL)
- MIC [60]: 10 µM (≈ 26.5 µg/mL)
- MIC [61]: 20 µM (≈ 53 µg/mL)
- MIC [62]: 5 µM (≈ 13.3 µg/mL)
SMILES: CC[C@@H](C)[C@H](N=C(O)[C@H](CCCCN)N=C(O)C(CS)N=C(O)C(C)N=C(O)[C@H](N=C(O)[C@@H](Cc1ccccc1)N=C(O)CN=C(O)[C@H](CC(C)C)N=C(O)CN=C(O)[C@H](N=C(O)[C@H](CCCCN)N=C(O)CN=C(O)[C@H](CC(C)C)N=C(O)[C@H](CC(=N)O)N=C(O)[C@H](CCCCN)N=C(O)[C@H](CC(C)C)N=C(O)[C@H](N=C(O)[C@H](CO)N=C(O)C(CC(C)C)N=C(O)[C@H](CCSC)N=C(O)[C@H](N)CO)C(C)C)C(C)C)C(C)C)C(O)=N[C@H](CC(=N)O)C(O)=N[C@H](CCCCN)C(O)=N[C@H](CCC(=N)O)C(O)=N[C@H](CS)C(=O)O (some centres undefined) [SMLSVLKNLGKVGLGFVACKINKQC]
